Results as given in PubChem BioAssay AID248 (DTP/NCI, 2004).
Where “and” joins values, the source holds several entries; their conditions need not be identical. Equal values may be shown once. Toxic doses and inconclusive results are not listed.

System: L1210 leukemia ip in BDF1 mice, survival T/C
Assay: NCI In Vivo Anticancer Drug Screen. Data for tumor model L1210 Leukemia (intraperitoneal) in B6D2F1 (BDF1) mice
Details: endpoint: mean survival time, higher = longer survival
In short: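 Read-out is survival time, reported as the treated-group measurement over the vehicle-control measurement.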

[1] = dose: 100.0 mg/kg/injection, schedule: Q01DX009 (ip), vehicle: Klucel (hydroxypropylcellulose) (HPC)
[2] = dose: 200.0 mg/kg/injection, schedule: Q01DX009 (ip), vehicle: Klucel (hydroxypropylcellulose) (HPC)
[3] = dose: 100.0 mg/kg/injection, schedule: Q01DX001 (ip), vehicle: saline
[4] = dose: 100.0 mg/kg/injection, schedule: Q04DX003 (ip), vehicle: Klucel (hydroxypropylcellulose) (HPC)
[5] = dose: 200.0 mg/kg/injection, schedule: Q04DX003 (ip), vehicle: Klucel (hydroxypropylcellulose) (HPC)
[6] = dose: 100.0 mg/kg/injection, schedule: Q01DX001 (ip), vehicle: carboxymethylcellulose (CMC)
[7] = dose: 200.0 mg/kg/injection, schedule: Q01DX001 (ip), vehicle: carboxymethylcellulose (CMC)
[8] = dose: 100.0 mg/kg/injection, schedule: Q01DX001 (ip), vehicle: Klucel (hydroxypropylcellulose) (HPC)
[9] = dose: 200.0 mg/kg/injection, schedule: Q01DX001 (ip), vehicle: Klucel (hydroxypropylcellulose) (HPC)
[10] = dose: 400.0 mg/kg/injection, schedule: Q01DX001 (ip), vehicle: Klucel (hydroxypropylcellulose) (HPC)
[11] = dose: 400.0 mg/kg/injection, schedule: Q01DX009 (ip), vehicle: Klucel (hydroxypropylcellulose) (HPC)
[12] = dose: 400.0 mg/kg/injection, schedule: Q04DX003 (ip), vehicle: Klucel (hydroxypropylcellulose) (HPC)
[13] = dose: 100.0 mg/kg/injection, schedule: Q04DX003 (ip), vehicle: saline
[14] = dose: 200.0 mg/kg/injection, schedule: Q04DX003 (ip), vehicle: saline
[15] = dose: 100.0 mg/kg/injection, schedule: Q04DX002 (ip), vehicle: Klucel (hydroxypropylcellulose) (HPC)
[16] = dose: 200.0 mg/kg/injection, schedule: Q04DX002 (ip), vehicle: Klucel (hydroxypropylcellulose) (HPC)
[17] = dose: 400.0 mg/kg/injection, schedule: Q04DX002 (ip), vehicle: Klucel (hydroxypropylcellulose) (HPC)
[18] = dose: 400.0 mg/kg/injection, schedule: Q04DX003 (ip), vehicle: saline
[19] = dose: 400.0 mg/kg/injection, schedule: Q01DX001 (ip), vehicle: carboxymethylcellulose (CMC)

Compound: CC1(C)N=C(N)N=C(N)N1c1ccc(OCCCOc2ccc(S(=O)(=O)F)cc2)c(Cl)c1
- T/C (dose: 25.0 mg/kg/injection, schedule: Q01DX009 (ip), vehicle: saline): 100 % of control

Compound: COc1ccc([N+](=O)[O-])cc1NC(=O)Oc1ccc(F)cc1
- T/C (dose: 50.0 mg/kg/injection, schedule: Q01DX009 (ip), vehicle: Klucel (hydroxypropylcellulose) (HPC)): 100 % of control
- T/C [1]: 92 % of control
- T/C [2]: 96 % of control

Compound: CCN(CC)CC(=O)c1ccc(O)c(O)c1
- T/C (dose: 53.0 mg/kg/injection, schedule: Q01DX Z (ip), vehicle: carboxymethylcellulose (CMC)): 109 % of control
- T/C (dose: 83.0 mg/kg/injection, schedule: Q01DX Z (ip), vehicle: carboxymethylcellulose (CMC)): 120 % of control
- T/C (dose: 125.0 mg/kg/injection, schedule: Q01DX Z (ip), vehicle: carboxymethylcellulose (CMC)): 105 % of control
- T/C (dose: 187.0 mg/kg/injection, schedule: Q01DX Z (ip), vehicle: carboxymethylcellulose (CMC)): 115 % of control

Compound: C[SH+]c1ccccc1N=Cc1ccccn1.C[SH+]c1ccccc1N=Cc1ccccn1.[Ni+2].[O-][Cl+3]([O-])([O-])[O-]
- T/C (dose: 88.8 mg/kg/injection, schedule: Q01DX001 (ip), vehicle: saline): 93 % of control and 96 % of control
- T/C [3]: 105 % of control
- T/C (dose: 133.4 mg/kg/injection, schedule: Q01DX001 (ip), vehicle: saline): 96 % of control and 105 % of control
- T/C (dose: 300.0 mg/kg/injection, schedule: Q01DX001 (ip), vehicle: saline): 95 % of control and 102 % of control

Compound: CC(C)(C)c1cc(C[N+](C)(C)C)cc(C(C)(C)C)n1
- T/C (dose: 50.0 mg/kg/injection, schedule: Q04DX002 (ip), vehicle: saline with Tween-80): 92 % of control
- T/C (dose: 100.0 mg/kg/injection, schedule: Q04DX002 (ip), vehicle: saline with Tween-80): 99 % of control

Compound: O=c1sc2ccccc2n1-c1ccccc1
- T/C [4]: 96 % of control
- T/C [5]: 93 % of control

Compound: CCOC(=O)C(C)(C)CO
- T/C (dose: 200.0 mg/kg/injection, schedule: Q04DX003 (ip), vehicle: saline sonified): 103 % of control
- T/C (dose: 400.0 mg/kg/injection, schedule: Q04DX003 (ip), vehicle: saline sonified): 93 % of control
- T/C (dose: 800.0 mg/kg/injection, schedule: Q04DX003 (ip), vehicle: saline sonified): 101 % of control

Compound: O=c1[nH]cc(S)c(=O)[nH]1
- T/C [6]: 96 % of control
- T/C (dose: 100.0 mg/kg/injection, schedule: Q01DX015 (ip), vehicle: carboxymethylcellulose (CMC)): 102 % of control
- T/C [7]: 100 % of control

Compound: CSc1ccc(OC2CCCCC2OS(C)(=O)=O)cc1 (centres undefined)
- T/C [8]: 102 % of control
- T/C [1]: 98 % of control
- T/C [4]: 107 % of control
- T/C [9]: 102 % of control
- T/C [2]: 98 % of control
- T/C [5]: 91 % of control
- T/C [10]: 94 % of control
- T/C [11]: 96 % of control
- T/C [12]: 96 % of control

Compound: COC1OC(n2cnc3ncn(Cc4ccccc4)c3c2=N)C2OC(C)(C)OC12 (centres undefined)
- T/C [13]: 97 % of control
- T/C [14]: 92 % of control

Compound: O=C(Nc1cccc([N+](=O)[O-])c1)Nc1ccccc1F
- T/C [1]: 91 % of control
- T/C [15]: 108 % of control
- T/C [2]: 101 % of control
- T/C [16]: 91 % of control
- T/C [11]: 101 % of control
- T/C [17]: 94 % of control

Compound: CCCCCCOC(CN)C(Cl)(Cl)Cl (centres undefined)
- T/C (dose: 12.5 mg/kg/injection, schedule: Q04DX003 (ip), vehicle: saline with Tween-80): 107 % of control
- T/C (dose: 25.0 mg/kg/injection, schedule: Q01DX009 (ip), vehicle: saline with Tween-80): 116 % of control
- T/C (dose: 25.0 mg/kg/injection, schedule: Q04DX003 (ip), vehicle: saline with Tween-80): 109 % of control
- T/C (dose: 50.0 mg/kg/injection, schedule: Q01DX009 (ip), vehicle: saline with Tween-80): 97 % of control
- T/C (dose: 50.0 mg/kg/injection, schedule: Q04DX003 (ip), vehicle: saline with Tween-80): 102 % of control

Compound: CC(=O)Nc1onc(C)c1N
- T/C (dose: 50.0 mg/kg/injection, schedule: Q01DX009 (ip), vehicle: saline): 103 % of control
- T/C (dose: 100.0 mg/kg/injection, schedule: Q01DX009 (ip), vehicle: saline): 98 % of control
- T/C [13]: 94 % of control
- T/C (dose: 200.0 mg/kg/injection, schedule: Q01DX009 (ip), vehicle: saline): 116 % of control and 88 % of control
- T/C [14]: 94 % of control
- T/C [18]: 92 % of control

Compound: Nc1ccc(S(=O)(=O)NCCO)cc1[N+](=O)[O-]
- T/C [8]: 103 % of control
- T/C (dose: 100.0 mg/kg/injection, schedule: Q01DX009 (ip), vehicle: saline sonified): 96 % of control
- T/C [9]: 106 % of control
- T/C (dose: 200.0 mg/kg/injection, schedule: Q01DX009 (ip), vehicle: saline sonified): 102 % of control
- T/C [10]: 105 % of control
- T/C (dose: 400.0 mg/kg/injection, schedule: Q01DX009 (ip), vehicle: saline sonified): 93 % of control

Compound: O=NN(CCF)C(=O)NC1CCSCC1
- T/C (dose: 24.0 mg/kg/injection, schedule: Q01DX001 (ip), vehicle: other): 334 % of control
- T/C (dose: 36.0 mg/kg/injection, schedule: Q01DX001 (ip), vehicle: other): 344 % of control
- T/C (dose: 54.0 mg/kg/injection, schedule: Q01DX001 (ip), vehicle: other): 344 % of control

Compound: O=C(/C=C/c1ccccc1)NC12CC3CC(CC(C3)C1)C2
- T/C [13]: 91 % of control
- T/C [14]: 93 % of control
- T/C [18]: 100 % of control

Compound: O=C(O)c1ccc([N+](=O)[O-])cc1F
- T/C [6]: 101 % of control
- T/C (dose: 100.0 mg/kg/injection, schedule: Q01DX009 (ip), vehicle: carboxymethylcellulose (CMC)): 96 % of control and 116 % of control
- T/C [15]: 90 % of control
- T/C (dose: 100.0 mg/kg/injection, schedule: Q04DX002 (ip), vehicle: carboxymethylcellulose (CMC)): 102 % of control and 107 % of control
- T/C (dose: 100.0 mg/kg/injection, schedule: Q04DX003 (ip), vehicle: carboxymethylcellulose (CMC)): 97 % of control
- T/C [7]: 99 % of control
- T/C (dose: 200.0 mg/kg/injection, schedule: Q01DX009 (ip), vehicle: carboxymethylcellulose (CMC)): 107 % of control and 89 % of control
- T/C [16]: 104 % of control
- T/C (dose: 200.0 mg/kg/injection, schedule: Q04DX002 (ip), vehicle: carboxymethylcellulose (CMC)): 99 % of control and 110 % of control
- T/C (dose: 200.0 mg/kg/injection, schedule: Q04DX003 (ip), vehicle: carboxymethylcellulose (CMC)): 100 % of control
- T/C (dose: 400.0 mg/kg/injection, schedule: Q01DX009 (ip), vehicle: carboxymethylcellulose (CMC)): 89 % of control
- T/C [17]: 93 % of control
- T/C (dose: 400.0 mg/kg/injection, schedule: Q04DX002 (ip), vehicle: carboxymethylcellulose (CMC)): 100 % of control and 86 % of control

Compound: NNc1nc(Cl)cc2c1ncn2C1OC(CO)C(O)C1O (centres undefined)
- T/C (dose: 100.0 mg/kg/injection, schedule: Q01DX005 (ip), vehicle: saline): 98 % of control
- T/C (dose: 200.0 mg/kg/injection, schedule: Q01DX005 (ip), vehicle: saline): 113 % of control

Compound: Cc1cc(N(CCCl)CCCl)ccc1C=Nc1cc(Br)c(O)c(Br)c1
- T/C [6]: 96 % of control
- T/C [7]: 94 % of control
- T/C [19]: 102 % of control

Compound: [Cl][Co][Cl].[NH-]CCC[NH-].[NH-]CCC[NH-]
- T/C [13]: 109 % of control

Compound: N#C/C(C(N)=O)=C1\CCCc2sccc21
- T/C [3]: 102 % of control
- T/C (dose: 200.0 mg/kg/injection, schedule: Q01DX001 (ip), vehicle: saline): 95 % of control

Compound: Clc1cc(Cl)c2c(c1)Cc1cc(Cl)cc(Cl)c1-2
- T/C [1]: 94 % of control
- T/C [4]: 92 % of control
- T/C [2]: 91 % of control
- T/C [5]: 89 % of control
- T/C [11]: 87 % of control
- T/C [12]: 102 % of control

Compound: COC1=C(NCc2ccccc2)C(=O)C(OC)=C(NCc2ccccc2)C1=O
- T/C (dose: 50.0 mg/kg/injection, schedule: Q01DX001 (ip), vehicle: carboxymethylcellulose (CMC)): 113 % of control
- T/C [6]: 101 % of control
- T/C [1]: 92 % of control
- T/C [4]: 90 % of control
- T/C [7]: 107 % of control
- T/C [2]: 95 % of control
- T/C [5]: 93 % of control
- T/C [19]: 107 % of control
- T/C [11]: 92 % of control
- T/C [12]: 97 % of control
